{"source": "paper PMC8198181", "about": "“Evaluation of Substituted N-Phenylpiperazine Analogs as D3 vs. D2 Dopamine Receptor Subtype Selective Ligands” (Molecules, 2021)", "key": {"5-HT2B receptor": {"target": "5-HT2B receptor (Homo sapiens, UniProt P41595)", "sequence (P41595 whole entry)": "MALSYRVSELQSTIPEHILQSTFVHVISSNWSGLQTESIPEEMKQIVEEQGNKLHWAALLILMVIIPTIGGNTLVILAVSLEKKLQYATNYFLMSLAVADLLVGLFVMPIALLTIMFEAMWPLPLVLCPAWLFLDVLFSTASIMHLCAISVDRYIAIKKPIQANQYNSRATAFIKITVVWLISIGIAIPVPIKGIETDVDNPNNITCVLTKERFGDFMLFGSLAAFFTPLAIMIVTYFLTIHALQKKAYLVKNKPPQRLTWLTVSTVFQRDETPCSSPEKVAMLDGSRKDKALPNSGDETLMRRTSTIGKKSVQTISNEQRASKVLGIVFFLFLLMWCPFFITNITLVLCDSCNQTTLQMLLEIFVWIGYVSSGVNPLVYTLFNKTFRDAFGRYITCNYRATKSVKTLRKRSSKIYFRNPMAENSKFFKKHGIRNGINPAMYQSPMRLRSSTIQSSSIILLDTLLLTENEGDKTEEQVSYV", "test": "PDSP off-target binding", "conditions": "read-out: binding affinity 5-HT2B (PDSP)", "from_the_text": "(§1) Further evaluation of the off-target binding of compound 6a was provided by the Psychoactive Drug Screening Program (PDSP) for a range of receptors including serotonin receptor subtypes, α-adrenergic receptor subtypes, β-adrenergic receptor subtypes, histaminergic receptor subtypes, muscarinic receptor subtypes, opioid receptor subtypes and the two sigma receptor subtypes."}, "5-HT7A receptor": {"target": "5-HT7A receptor (Homo sapiens, UniProt P34969)", "sequence (P34969 1-445 isoform P34969-2)": "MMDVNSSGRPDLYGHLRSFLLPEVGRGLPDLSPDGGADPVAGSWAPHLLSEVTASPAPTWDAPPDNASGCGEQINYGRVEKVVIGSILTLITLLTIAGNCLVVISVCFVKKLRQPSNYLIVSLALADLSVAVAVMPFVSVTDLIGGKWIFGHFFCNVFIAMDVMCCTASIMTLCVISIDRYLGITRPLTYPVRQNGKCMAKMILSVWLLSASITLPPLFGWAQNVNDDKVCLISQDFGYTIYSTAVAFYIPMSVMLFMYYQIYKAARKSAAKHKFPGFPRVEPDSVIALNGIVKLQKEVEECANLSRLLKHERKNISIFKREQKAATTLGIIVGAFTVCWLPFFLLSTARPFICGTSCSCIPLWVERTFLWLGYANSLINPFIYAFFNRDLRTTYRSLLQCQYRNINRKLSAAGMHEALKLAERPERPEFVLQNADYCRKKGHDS", "test": "PDSP off-target binding", "conditions": "read-out: binding affinity 5-HT7A (PDSP)", "from_the_text": "as §1"}, "D3 dopamine receptor [1]": {"target": "T1, D3 dopamine receptor (Homo sapiens, UniProt P35462)", "T1 sequence (P35462 whole entry)": "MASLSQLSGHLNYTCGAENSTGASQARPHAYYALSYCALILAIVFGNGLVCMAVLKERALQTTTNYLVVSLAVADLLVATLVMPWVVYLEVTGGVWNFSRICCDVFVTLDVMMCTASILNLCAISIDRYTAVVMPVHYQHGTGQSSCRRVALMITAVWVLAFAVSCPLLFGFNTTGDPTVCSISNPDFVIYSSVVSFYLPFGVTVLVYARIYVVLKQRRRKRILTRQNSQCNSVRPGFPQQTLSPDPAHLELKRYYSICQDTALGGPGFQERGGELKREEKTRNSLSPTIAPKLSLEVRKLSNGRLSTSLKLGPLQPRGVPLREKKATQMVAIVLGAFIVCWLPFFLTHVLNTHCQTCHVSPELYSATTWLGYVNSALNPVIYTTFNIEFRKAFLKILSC", "test": "PDSP off-target binding", "conditions": "read-out: binding affinity D3 (PDSP)", "from_the_text": "as §1"}, "D4 dopamine receptor": {"target": "D4 dopamine receptor (Homo sapiens, UniProt P21917)", "sequence (P21917 whole entry)": "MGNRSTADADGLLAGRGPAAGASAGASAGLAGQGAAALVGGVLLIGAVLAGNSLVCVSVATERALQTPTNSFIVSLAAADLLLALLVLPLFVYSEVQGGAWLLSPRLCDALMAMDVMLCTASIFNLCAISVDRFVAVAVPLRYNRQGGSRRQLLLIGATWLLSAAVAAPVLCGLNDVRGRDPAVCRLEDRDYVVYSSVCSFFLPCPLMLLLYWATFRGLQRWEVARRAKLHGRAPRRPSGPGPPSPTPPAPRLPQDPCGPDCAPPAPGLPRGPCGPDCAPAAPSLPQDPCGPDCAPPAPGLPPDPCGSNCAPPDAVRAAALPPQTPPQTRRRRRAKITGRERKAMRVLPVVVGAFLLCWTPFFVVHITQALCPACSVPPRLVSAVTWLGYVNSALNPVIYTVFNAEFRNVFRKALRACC", "test": "PDSP off-target binding", "conditions": "read-out: binding affinity D4 (PDSP)", "from_the_text": "as §1"}, "D5 dopamine receptor": {"target": "D5 dopamine receptor (Homo sapiens, UniProt P21918)", "sequence (P21918 whole entry)": "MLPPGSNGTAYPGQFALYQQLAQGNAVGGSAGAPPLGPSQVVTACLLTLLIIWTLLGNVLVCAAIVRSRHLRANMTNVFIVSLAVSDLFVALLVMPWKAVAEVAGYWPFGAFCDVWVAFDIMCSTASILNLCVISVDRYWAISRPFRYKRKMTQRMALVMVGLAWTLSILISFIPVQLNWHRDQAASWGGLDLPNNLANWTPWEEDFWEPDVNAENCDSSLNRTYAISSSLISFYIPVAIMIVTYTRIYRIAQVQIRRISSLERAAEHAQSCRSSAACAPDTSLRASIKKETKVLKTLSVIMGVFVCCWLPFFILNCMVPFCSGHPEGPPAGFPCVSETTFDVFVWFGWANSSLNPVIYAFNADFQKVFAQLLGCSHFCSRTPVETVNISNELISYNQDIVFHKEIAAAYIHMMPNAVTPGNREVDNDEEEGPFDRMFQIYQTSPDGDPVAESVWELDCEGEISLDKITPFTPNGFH", "test": "PDSP off-target binding", "conditions": "in words", "from_the_text": "as §1"}, "[2]": {"target": "norepinephrine transporter (NET) (Homo sapiens, UniProt P23975)", "sequence (P23975 whole entry, species assumed)": "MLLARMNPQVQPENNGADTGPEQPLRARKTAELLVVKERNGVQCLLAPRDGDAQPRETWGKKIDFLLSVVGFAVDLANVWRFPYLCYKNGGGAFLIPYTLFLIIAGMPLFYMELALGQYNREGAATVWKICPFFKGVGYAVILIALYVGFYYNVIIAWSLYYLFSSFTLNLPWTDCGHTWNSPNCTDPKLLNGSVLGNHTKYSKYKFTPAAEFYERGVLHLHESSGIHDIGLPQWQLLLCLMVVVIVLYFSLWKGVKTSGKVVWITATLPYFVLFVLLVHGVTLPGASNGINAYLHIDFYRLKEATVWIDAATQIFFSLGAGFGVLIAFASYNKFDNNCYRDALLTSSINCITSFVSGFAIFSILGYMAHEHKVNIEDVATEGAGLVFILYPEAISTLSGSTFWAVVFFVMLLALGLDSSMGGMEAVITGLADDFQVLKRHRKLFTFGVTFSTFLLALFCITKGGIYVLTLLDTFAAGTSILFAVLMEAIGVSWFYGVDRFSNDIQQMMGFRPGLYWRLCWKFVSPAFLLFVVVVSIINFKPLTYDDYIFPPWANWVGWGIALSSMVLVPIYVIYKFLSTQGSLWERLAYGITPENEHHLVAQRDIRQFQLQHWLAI", "test": "PDSP off-target binding", "conditions": "read-out: binding affinity NET (PDSP)", "from_the_text": "as §1"}, "sigma-2 receptor": {"target": "sigma-2 receptor (Homo sapiens, UniProt Q5BJF2)", "sequence (Q5BJF2 whole entry, species assumed)": "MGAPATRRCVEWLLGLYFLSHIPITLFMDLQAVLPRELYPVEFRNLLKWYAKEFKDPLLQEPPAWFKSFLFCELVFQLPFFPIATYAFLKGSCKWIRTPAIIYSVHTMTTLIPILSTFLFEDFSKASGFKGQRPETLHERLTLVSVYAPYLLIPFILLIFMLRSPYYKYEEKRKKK", "test": "PDSP off-target binding", "conditions": "read-out: binding affinity sigma-2 (PDSP)", "from_the_text": "as §1"}, "α1a adrenergic receptor": {"target": "α1a adrenergic receptor (Homo sapiens, UniProt P35348)", "sequence (P35348 whole entry)": "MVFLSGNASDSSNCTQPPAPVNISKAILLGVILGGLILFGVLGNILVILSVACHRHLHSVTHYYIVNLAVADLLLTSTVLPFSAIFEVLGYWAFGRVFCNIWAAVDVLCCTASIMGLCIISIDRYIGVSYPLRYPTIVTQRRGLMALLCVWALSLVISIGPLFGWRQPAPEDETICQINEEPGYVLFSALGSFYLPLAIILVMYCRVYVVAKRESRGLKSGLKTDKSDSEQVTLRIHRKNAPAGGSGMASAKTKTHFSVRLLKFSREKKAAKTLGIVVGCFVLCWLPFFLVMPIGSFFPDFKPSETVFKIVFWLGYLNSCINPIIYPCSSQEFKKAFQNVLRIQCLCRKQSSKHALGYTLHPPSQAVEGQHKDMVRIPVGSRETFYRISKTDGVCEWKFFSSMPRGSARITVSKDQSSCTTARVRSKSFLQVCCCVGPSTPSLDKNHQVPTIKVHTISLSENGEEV", "test": "PDSP off-target binding", "conditions": "read-out: binding affinity α1a (PDSP)", "from_the_text": "as §1"}, "α1b adrenergic receptor": {"target": "α1b adrenergic receptor (Homo sapiens, UniProt P35368)", "sequence (P35368 whole entry)": "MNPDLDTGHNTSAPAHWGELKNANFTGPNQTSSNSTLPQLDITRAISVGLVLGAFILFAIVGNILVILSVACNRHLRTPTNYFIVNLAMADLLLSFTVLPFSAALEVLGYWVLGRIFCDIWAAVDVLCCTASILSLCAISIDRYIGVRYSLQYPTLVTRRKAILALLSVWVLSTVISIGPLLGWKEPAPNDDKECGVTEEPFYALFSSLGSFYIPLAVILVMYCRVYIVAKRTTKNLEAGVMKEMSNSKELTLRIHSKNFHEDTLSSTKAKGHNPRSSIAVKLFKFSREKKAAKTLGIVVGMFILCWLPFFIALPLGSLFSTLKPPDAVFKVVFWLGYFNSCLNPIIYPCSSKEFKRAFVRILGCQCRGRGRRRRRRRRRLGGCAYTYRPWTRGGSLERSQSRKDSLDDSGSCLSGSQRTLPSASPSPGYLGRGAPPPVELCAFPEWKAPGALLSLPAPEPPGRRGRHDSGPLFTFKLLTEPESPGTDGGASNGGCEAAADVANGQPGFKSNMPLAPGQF", "test": "PDSP off-target binding", "conditions": "read-out: binding affinity α1b (PDSP)", "from_the_text": "as §1"}, "α1d adrenergic receptor": {"target": "α1d adrenergic receptor (Homo sapiens, UniProt P25100)", "sequence (P25100 whole entry)": "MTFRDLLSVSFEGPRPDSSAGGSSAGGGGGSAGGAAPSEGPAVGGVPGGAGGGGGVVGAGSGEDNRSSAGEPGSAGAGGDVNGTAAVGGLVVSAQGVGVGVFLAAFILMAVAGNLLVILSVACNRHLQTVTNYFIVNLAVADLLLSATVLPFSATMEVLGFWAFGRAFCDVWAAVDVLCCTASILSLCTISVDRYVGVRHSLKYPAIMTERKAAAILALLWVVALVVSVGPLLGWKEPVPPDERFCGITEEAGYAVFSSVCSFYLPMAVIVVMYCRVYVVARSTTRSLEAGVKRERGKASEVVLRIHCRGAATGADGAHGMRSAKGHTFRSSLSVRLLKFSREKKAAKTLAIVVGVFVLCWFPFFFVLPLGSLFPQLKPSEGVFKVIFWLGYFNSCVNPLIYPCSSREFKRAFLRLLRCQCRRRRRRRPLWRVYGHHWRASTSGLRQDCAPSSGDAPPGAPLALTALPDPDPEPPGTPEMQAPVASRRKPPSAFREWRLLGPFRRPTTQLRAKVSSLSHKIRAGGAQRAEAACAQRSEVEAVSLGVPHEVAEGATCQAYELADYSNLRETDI", "test": "PDSP off-target binding", "conditions": "read-out: binding affinity α1d (PDSP)", "from_the_text": "as §1"}, "D3 dopamine receptor [3]": {"target": "T1, D3 dopamine receptor", "experimental": "Competitive radioligand binding techniques were used to determine the Ki values of ligands at human D2 and D3 dopamine receptors expressed in stably transfected HEK cells (Table 1).\nThe final radioligand concentration was approximately equal to the Kd value for the binding of the radioligand. […] For each competition curve, triplicates were performed using two concentrations of inhibitor per decade over five orders of magnitude.\nThe competition curves were modeled for a single binding site using Bs = Bo − ((Bo + L)/(IC50 + L)) where Bs is the amount of ligand bound to receptor and Bo is the amount of ligand bound to receptor in the absence of competitive inhibitor. L is the concentration of the competitive inhibitor. […] The values for Bs and Bo were constrained using experimentally derived values. The IC50 values were converted to equilibrium dissociation constants (Ki) [50, 51]. Mean Ki values ± S.E.M. are reported for at least three independent experiments."}}, "note": "Read-outs that look alike come from different tables or passages of the source.", "data": [{"compound": "O=C(NCCCCN1CCN(c2ccccc2F)CC1)c1ccc(-c2ccsc2)cc1", "note": "[Compound 6a]", "values": [{"measurement": "Ki", "setting": "5-HT2B receptor", "result": 0.0363, "unit": "µM"}, {"measurement": "Ki", "setting": "5-HT7A receptor", "result": 0.0736, "unit": "µM"}, {"measurement": "Ki", "setting": "D3 dopamine receptor [1]", "result": 0.0002, "unit": "µM"}, {"measurement": "Ki", "setting": "D4 dopamine receptor", "result": "> 1.5", "unit": "µM"}, {"measurement": "binding affinity D5 (PDSP)", "setting": "D5 dopamine receptor", "result": "low affinity binding"}, {"measurement": "Ki", "setting": "[2]", "result": "> 0.65", "unit": "µM"}, {"measurement": "Ki", "setting": "sigma-2 receptor", "result": 0.0331, "unit": "µM"}, {"measurement": "Ki", "setting": "α1a adrenergic receptor", "result": 0.0098, "unit": "µM"}, {"measurement": "Ki", "setting": "α1b adrenergic receptor", "result": "> 0.1", "unit": "µM"}, {"measurement": "Ki", "setting": "α1d adrenergic receptor", "result": 0.0166, "unit": "µM"}, {"measurement": "Ki", "setting": "D3 dopamine receptor [3]", "result": "0.0014 ± 0.0002", "unit": "µM"}, {"measurement": "D2:D3 Selectivity", "setting": "D3 dopamine receptor [3]; ratio of D2 and D3 Ki values (Table 1)", "result": 467}]}]}
